{"source": "patent US9127040B2", "about": "“Regulation of sodium channels by PLUNC proteins” (The University of North Carolina at Chapel Hill, priority 2011, dated 2015)", "key": {"[1]": {"target": "T1, αENaC-eGFP and βENaC-mCherry (Homo sapiens, UniProt P37088+P51168)", "T1 construct": "expressed in transfected cells", "experiment": "Acceptor-photobleaching FRET between fluorescently tagged ENaC subunits", "type": "cell-based", "details": "one hour of exposure", "description": "Ai, cartoon of αENaC-eGFP and βENaC-mCherry under basal conditions (γENaC not shown). Aii We hypothesize that S18 binding to the extracellular loop of βENaC (1) induces a conformational change in ENaC which is reflected as altered intracellular FRET (2). This change may facilitate NEDD4-2-induced ubiquitination (3), leading to internalization of αβγENaC (4). […] In contrast, exposure to aprotinin had no effect. All n=8-10. C, Typical confocal images of HEK cells expressing αγENaC and βENaC-eGFP before and 1 h after 100 μM S18. Cell outlines are traced in white.\nSince ENaC is regulated by NEDD4-2 binding to its C-termini, which leads to ubiquitination of its N-termini and internalization, we propose that S18 causes a conformational change in ENaC, leading to increased ubiquitination followed by internalization (FIG. 21A). As a first step towards understanding the mechanism of action of SPLUNC1, we performed FRET on fluorescently tagged ENaCs. […] Furthermore, βENaC-eGFP internalized upon S18 binding (FIG. 21C), consistent with our surface biotinylation data from oocytes."}, "ENaC": {"target": "T2, ENaC (Homo sapiens, UniProt P37088+P51168+P51170)", "T2 construct": "measured the transepithelial voltage under thin film conditions in human bronchial epithelial cultures; endogenous in cells; host or cells: primary human bronchial epithelial cultures (normal or CF donors)", "T2 sequence (P37088 1-669)": "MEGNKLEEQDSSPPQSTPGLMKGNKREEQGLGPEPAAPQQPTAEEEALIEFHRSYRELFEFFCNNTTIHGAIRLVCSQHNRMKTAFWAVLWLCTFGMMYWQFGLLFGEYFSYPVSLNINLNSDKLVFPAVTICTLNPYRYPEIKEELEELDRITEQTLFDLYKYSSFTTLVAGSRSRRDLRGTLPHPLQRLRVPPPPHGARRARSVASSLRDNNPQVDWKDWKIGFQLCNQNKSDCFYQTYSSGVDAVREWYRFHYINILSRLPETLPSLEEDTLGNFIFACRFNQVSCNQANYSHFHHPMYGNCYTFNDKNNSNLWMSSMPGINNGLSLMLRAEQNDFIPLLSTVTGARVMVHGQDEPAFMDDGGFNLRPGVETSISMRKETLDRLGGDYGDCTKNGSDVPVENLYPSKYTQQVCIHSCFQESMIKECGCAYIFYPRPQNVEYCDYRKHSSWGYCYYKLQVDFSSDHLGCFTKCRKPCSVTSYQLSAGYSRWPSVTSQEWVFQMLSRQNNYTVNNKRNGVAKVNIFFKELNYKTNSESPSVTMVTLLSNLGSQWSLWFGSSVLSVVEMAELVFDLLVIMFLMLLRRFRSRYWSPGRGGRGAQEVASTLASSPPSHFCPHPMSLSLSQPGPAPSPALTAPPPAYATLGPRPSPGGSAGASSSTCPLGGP", "T2 sequence (P51168 1-640)": "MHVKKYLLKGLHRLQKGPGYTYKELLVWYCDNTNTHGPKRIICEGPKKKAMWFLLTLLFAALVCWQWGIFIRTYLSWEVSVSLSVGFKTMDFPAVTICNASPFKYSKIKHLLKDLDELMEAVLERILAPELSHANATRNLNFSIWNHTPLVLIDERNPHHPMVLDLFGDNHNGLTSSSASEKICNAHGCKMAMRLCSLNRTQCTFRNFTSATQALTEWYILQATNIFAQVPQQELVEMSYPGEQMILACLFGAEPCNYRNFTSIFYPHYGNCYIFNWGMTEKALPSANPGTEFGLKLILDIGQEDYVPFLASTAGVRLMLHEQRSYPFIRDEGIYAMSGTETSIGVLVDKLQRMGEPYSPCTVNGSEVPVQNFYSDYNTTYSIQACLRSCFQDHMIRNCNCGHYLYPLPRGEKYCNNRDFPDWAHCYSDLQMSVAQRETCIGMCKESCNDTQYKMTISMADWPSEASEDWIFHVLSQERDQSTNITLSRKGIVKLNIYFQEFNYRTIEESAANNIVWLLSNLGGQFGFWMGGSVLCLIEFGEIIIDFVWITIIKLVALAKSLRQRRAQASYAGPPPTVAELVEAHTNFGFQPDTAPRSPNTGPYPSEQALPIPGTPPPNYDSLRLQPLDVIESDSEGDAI", "T2 sequence (P51170 1-649)": "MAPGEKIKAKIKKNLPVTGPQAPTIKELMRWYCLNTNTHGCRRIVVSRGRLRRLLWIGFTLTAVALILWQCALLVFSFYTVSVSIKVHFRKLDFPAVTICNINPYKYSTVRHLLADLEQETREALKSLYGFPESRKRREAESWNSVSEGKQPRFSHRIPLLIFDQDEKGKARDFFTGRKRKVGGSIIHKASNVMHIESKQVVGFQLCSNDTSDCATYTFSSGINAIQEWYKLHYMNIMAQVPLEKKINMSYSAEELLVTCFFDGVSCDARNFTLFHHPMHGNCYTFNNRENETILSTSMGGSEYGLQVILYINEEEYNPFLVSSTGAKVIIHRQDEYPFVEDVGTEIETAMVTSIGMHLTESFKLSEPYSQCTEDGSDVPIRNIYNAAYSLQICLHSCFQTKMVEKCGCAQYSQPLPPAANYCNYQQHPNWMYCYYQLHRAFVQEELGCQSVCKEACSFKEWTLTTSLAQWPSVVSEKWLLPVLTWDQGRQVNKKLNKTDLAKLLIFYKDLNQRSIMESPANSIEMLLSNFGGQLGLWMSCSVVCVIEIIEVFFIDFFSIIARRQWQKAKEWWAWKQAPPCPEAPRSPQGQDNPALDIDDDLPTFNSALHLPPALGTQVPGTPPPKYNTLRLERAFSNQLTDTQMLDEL", "experiment": "Thin film amiloride-sensitive transepithelial PD in CF HBECs", "type": "cell-based", "details": "10 μM S18, over 24 h", "description": "A, airway surface liquid (ASL) height with time in CF HBECs measured by XZ confocal microscopy after apical addition of 20 μl Ringer with rhodamine-dextran. ▪=control; ▴=10 μM S18. Both n=6. B, Thin film amiloride-sensitive transepithelial PD measured in the same cultures as A, with microelectrodes positioned in the ASL and serosal bath. Open bars, control, closed bars, S18, n=6. C, Dose response to S18 vs. ASL height in CF primary human bronchial epithelial cultures (HBECs) measured 8 h after S18 addition. D, Bar graph of 8 h ASL height in CF HBECs. Control (open bars), S18 black bars, aprotinin, gray bars. NE, neutrophil elastase. ANS, activated neutrophil supernatant. All n=6. *p<0.05 different to vehicle. †p<0.05 different to aprotinin.\nA single-barreled potential difference-sensing electrode was placed in the airway surface liquid by micromanipulator and used in conjunction with a macroelectrode in the serosal solution to measure transepithelial voltage using a voltmeter (World Precision Instruments). […] Transepithelial resistance was routinely measured using the EVOM system (WPI) as previously described (Tarran et al., J. Gen. Physiol. 127:591 (2006))."}}, "note": "Ends that are not written are not given here."}
{"sequence": "GGLPVPLDQTLPLNVNPA [S18]", "values": [{"measurement": "FRET between αENaC-eGFP and βENaC-mCherry", "setting": "[1]", "result": "significantly diminished"}, {"measurement": "amiloride-sensitive PD", "setting": "ENaC", "result": "reduced the amiloride-sensitive PD"}]}
